#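 Briefly, cells in 96-well plates were exposed to five compound concentrations for 48 h, and endpoints were estimated by linear interpolation. TGI: concentration producing complete growth inhibition.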
# Key:
# Test in all cases: NCI anticancer screen, dose series, 48 h
# [1] = test system: SW-620 colon
# [2] = test system: MALME-3M melanoma
# [3] = test system: SK-MEL-28 melanoma
# [4] = test system: HCT-116 colon
# [5] = test system: MOLT-4 leukemia
# [6] = test system: NCI-H460 lung
# [7] = test system: HL-60(TB) leukemia
# [8] = test system: 786-0 renal
# [9] = test system: SK-OV-3 ovarian
# [10] = test system: BT-549 breast
# [11] = test system: OVCAR-3 ovarian
# [12] = test system: EKVX NSCLC
# [13] = test system: ACHN renal
# [14] = test system: DU-145 prostate
# [15] = test system: KM12 colon
# [16] = test system: HCC-2998 colon
# [17] = test system: UO-31 renal
# [18] = test system: NCI-H23 lung
# [19] = test system: HOP-62 NSCLC
# [20] = test system: RXF 393 renal
# [21] = test system: TK-10 renal
# [22] = test system: COLO 205 colon
# [23] = test system: PC-3 prostate
# [24] = test system: NCI/ADR-RES ovarian
# [25] = test system: SF-268 CNS
# [26] = test system: OVCAR-4 ovarian
# [27] = test system: HS 578T breast
# [28] = test system: SF-539 CNS
# [29] = test system: NCI-H226 lung
# [30] = test system: CAKI-1 renal
# [31] = test system: SNB-75 CNS
# [32] = test system: SR leukemia
# [33] = test system: SF-295 CNS
# [34] = test system: U251 CNS
# [35] = test system: MDA-N
# [36] = test system: OVCAR-8 ovarian
# [37] = test system: M14 melanoma
# [38] = test system: SK-MEL-5 melanoma
# [39] = test system: HOP-92 NSCLC
# [40] = test system: UACC-62 melanoma
# [41] = test system: K-562 leukemia
# [42] = test system: OVCAR-5 ovarian
# [43] = test system: IGROV1 ovarian
# [44] = test system: HT29 colon
# [45] = test system: A498 renal
# [46] = test system: LOX IMVI melanoma
# [47] = test system: SNB-19 CNS
# [48] = test system: MDA-MB-231 breast
# [49] = test system: NCI-H522 lung
# [50] = test system: HCT-15 colon
# [51] = test system: SK-MEL-2 melanoma
# [52] = test system: CCRF-CEM leukemia
# [53] = test system: A549 NSCLC
# [54] = test system: MCF7 breast
# [55] = test system: UACC-257 melanoma
# [56] = test system: SN12C renal
# [57] = test system: MDA-MB-435
# [58] = test system: T-47D breast
# [59] = test system: SNB-78 CNS
# [60] = test system: KM20L2 colon
# [61] = test system: LXFL 529 NSCLC
# [62] = test system: RPMI-8226 leukemia
# [63] = test system: XF 498 CNS
# [64] = test system: DMS 273 small cell lung
smiles,measurement,setting,value
COc1cc(C2c3cc4c(cc3OC3(OC)COC(=O)C23)OCO4)cc(OC)c1OC (stereo not drawn),TGI,[1],> 100 µM
same,TGI,[2],> 100 µM
same,TGI,[3],> 100 µM
same,TGI,[4],7 µM
same,TGI,[5],12.2 µM
same,TGI,[6],> 67.9 µM
same,TGI,[7],13.6 µM
same,TGI,[8],> 27.1 µM
same,TGI,[9],> 100 µM
same,TGI,[10],> 100 µM
same,TGI,[11],2.45 µM
same,TGI,[12],> 72.1 µM
same,TGI,[13],> 100 µM
same,TGI,[14],6.51 µM
same,TGI,[15],7.68 µM
same,TGI,[16],14.9 µM
same,TGI,[17],> 100 µM
same,TGI,[18],> 100 µM
same,TGI,[19],> 100 µM
same,TGI,[20],11.7 µM
same,TGI,[21],> 100 µM
same,TGI,[22],0.64 µM
same,TGI,[23],> 44.9 µM
same,TGI,[24],4.39 µM
same,TGI,[25],> 85.6 µM
same,TGI,[26],> 100 µM
same,TGI,[27],> 100 µM
same,TGI,[28],0.697 µM
same,TGI,[29],8.16 µM
same,TGI,[30],> 90.2 µM
same,TGI,[31],> 100 µM
same,TGI,[32],4.8 µM
same,TGI,[33],0.479 µM
same,TGI,[34],> 66.3 µM
same,TGI,[35],0.319 µM
same,TGI,[36],6.12 µM
same,TGI,[37],8.43 µM
same,TGI,[38],7.46 µM
same,TGI,[39],> 100 µM
same,TGI,[40],> 20.5 µM
same,TGI,[41],11 µM
same,TGI,[42],> 89.2 µM
same,TGI,[43],> 100 µM
same,TGI,[44],0.804 µM
same,TGI,[45],2.38 µM
same,TGI,[46],23.4 µM
same,TGI,[47],> 26.6 µM
same,TGI,[48],2.08 µM
same,TGI,[49],3.19 µM
same,TGI,[50],20.1 µM
same,TGI,[51],> 40.9 µM
same,TGI,[52],3.05 µM
same,TGI,[53],> 37.8 µM
same,TGI,[54],> 56.8 µM
same,TGI,[55],> 100 µM
same,TGI,[56],> 80.5 µM
same,TGI,[57],0.68 µM
same,TGI,[58],> 100 µM
CN(C)C(=S)/N=c1\ss/c(=N\C(=S)N(C)C)n1-c1ccc(Cl)cc1,TGI,[1],> 100 µM
same,TGI,[3],> 100 µM
same,TGI,[4],> 100 µM
same,TGI,[5],> 100 µM
same,TGI,[6],> 100 µM
same,TGI,[59],> 100 µM
same,TGI,[7],> 100 µM
same,TGI,[8],> 100 µM
same,TGI,[9],> 100 µM
same,TGI,[60],> 100 µM
same,TGI,[11],> 100 µM
same,TGI,[12],> 100 µM
same,TGI,[13],> 100 µM
same,TGI,[61],> 100 µM
same,TGI,[15],> 100 µM
same,TGI,[17],> 100 µM
same,TGI,[18],> 100 µM
same,TGI,[19],> 100 µM
same,TGI,[20],> 100 µM
same,TGI,[21],> 100 µM
same,TGI,[62],> 100 µM
same,TGI,[22],> 100 µM
same,TGI,[25],> 100 µM
same,TGI,[28],> 100 µM
same,TGI,[29],> 100 µM
same,TGI,[30],> 100 µM
same,TGI,[31],> 100 µM
same,TGI,[32],> 100 µM
same,TGI,[33],> 100 µM
same,TGI,[34],> 100 µM
same,TGI,[36],> 100 µM
same,TGI,[37],> 100 µM
same,TGI,[39],> 100 µM
same,TGI,[40],> 100 µM
same,TGI,[41],> 100 µM
same,TGI,[42],> 100 µM
same,TGI,[43],> 100 µM
same,TGI,[44],> 100 µM
same,TGI,[45],> 100 µM
same,TGI,[46],> 100 µM
same,TGI,[47],> 100 µM
same,TGI,[49],> 100 µM
same,TGI,[50],> 100 µM
same,TGI,[51],> 100 µM
same,TGI,[52],> 100 µM
same,TGI,[53],> 100 µM
same,TGI,[63],> 100 µM
same,TGI,[64],> 100 µM
same,TGI,[55],> 100 µM
same,TGI,[56],> 100 µM
